We go through 1 molecule from patent US5804576A, “Derivatives of 5-androsten-17-ones and 5-androstan-17-ones” (Research Corporation Technologies, Inc., priority 1986, dated 1998).

Each structure is given as a SMILES string.

The subject of series [1] is spontaneous breast cancer in C3H mice. The note with it: long-term treatment; cited from earlier work.
Series [2] concerns cultured rat kidney epithelial cell line. As to conditions: cited from earlier work.
The subject of series [3] is (3H) DMBA binding to skin DNA. The experiment in a line: [3H]DMBA binding to mouse skin DNA, topical steroid. In kind it is in vivo, mouse (A/J). The source says:
Skin tumors can be induced in the mouse either by weekly application of a carcinogen such as […] (DMBA), or alternatively,by a single sub-threshold dose of the carcinogen followed by twice weekly applications of the tumor promoter tetradecanoylphorbol-13-acetate (TPA). In order to exert its carcinogenic effect, DMBA must be metabolized by an NADPH-dependent mixed-function oxidase to chemically reactive intermediates which bind covalently to DNA and produce mutations leading to malignant transformation. […] This effect of DHEA very probably is a result of the inhibition of G6PDH and lowering of the intracellular pool of NADPH, which is a co-factor for the mixed-function oxidase activation of DMBA.
Binding of [^3 H]DMBA to mouse skin DNA was determined as described in Pashko, L. L., and Schwartz, A. G. (1983), Effect of food restriction, dehydroepiandrosterone, or obesity on the binding of ^3 H-7,12-dimethylbenz(a)-anthracene to mouse skin DNA, J. Gerontol., 38, 8-12. Values are mean±SD for 3 individual determinations, with pooled tissue from 2 mice used for each determination. DHEA or testosterone (400 ug in 0.2 ml acetone) was applied to the skin one hour before [^3 H]DMBA. The mean weight of the food restricted mice was 18.5±1.0 gm, n=6, of the ad libitum fed, 27.4±1.0 gm, n=6, of the ad libitum fed treated with DHEA, 28.2±0.9 gm, n=6, and of the ad libitum fed treated with testosterone, 28.3±0.9 gm, n=6, following two weeks of feeding. The average food consumed was, in gm/mouse/day, 2.2, 3.8, 3.8 and 4.0 for the food restricted, ad libitum fed, ad libitum fed plus DHEA, and ad libitum fed plus testosterone groups, respectively.

For series [4], the system named is TPA stimulation of 3H-thymidine incorporation in epidermis. The experiment in a line: Inhibition of TPA stimulation of 3H-thymidine incorporation in epidermis, topical steroid. In kind it is in vivo, mouse (A/J). The method, then:
Tumor promoters, such as TPA, stimulate hyperplasia and DNA synthesis when applied to the skin, and it is believed that this stimulation is an important step in the enhancement of tumorigenesis.
Incorporation of ^3 H-thymidine into A/J mouse epidermal DNA was determined as described in Pashko, L. L., Schwartz, A. G., Abou-Gharbia, M. and Swern, D. (1981), Inhibition of DNA synthesis in mouse epidermis and breast epithelium by dehydroepiandrosterone and related steroids, Carcinogenesis, 2, 717-721. Values are mean±SD for 3 separately treated mice in each group 20 hours after TPA application. DHEA or testosterone was added topically in 0.2 ml acetone one hour before TPA addition.
For orientation: Incorporation of labelled thymidine or its analogues reports DNA synthesis.

The subject of series [5] is seminal vesicles plus prostate glands. The experiment in a line: Androgenic and anti-androgenic activity (seminal vesicle plus prostate weight). In kind it is in vivo, mouse (male A/J). The note with it: con't. experiment; five weeks; DHEA 0.54%; n = 5.
Series [6] deals with many different cell lines in culture. As to conditions: 10^-5 M to 10^-4 M; cited from earlier work.

As for `C[C@]12CC[C@H](O)CC1=CC[C@@H]1[C@@H]2CC[C@]2(C)C(=O)CC[C@@H]12` [DHEA, 3β-Hydroxy-5-androst-en-17-one, reference compound], in series [1], the “spontaneous breast cancer development (in words)” value was “markedly inhibits spontaneous breast cancer development” and the “weight gain (in words)” value is reported as “reducing weight gain without suppressing appetite”. In series [2], the “TPA stimulation of 3H-thymidine incorporation (in words)” value was “antagonizes the capacity of the tumor promoter”. In series [3] (400 ug topical one hour before DMBA, ad libitum fed, Table 4), the “SPECIFIC ACTIVITY ([3H]DMBA bound to skin DNA)” value is reported as 66 ± 13 cpm/ug DNA. In addition, the “rate of binding of topically applied 3H-DMBA to skin DNA (in words)” value in series [3] (topical, A/J mouse) is reported as “inhibits the rate of binding of topically applied ^3 H-DMBA to A/J mouse skin DNA”. Besides, the “TPA stimulation of epidermal DNA synthesis (in words)” value in series [4] is “abolishes this stimulation”. For the same molecule, the “Mean Seminal Vesicle plus Prostate Weight ± S.D.” value in series [5] was 5.02 ± 0.41 mg/100 gm body weight. In addition, in series [6], the “growth of cell lines in culture (in words)” value is reported as “slows the growth of many different cell lines in culture”.
